From PMC7520419 (The AAPS Journal, 2020)
≈ marks a conversion by molar mass, not a printed value. Counter-ions that a name gives are not always drawn. Like-named read-outs stand apart in the source and are kept apart here.

What was measured:
[1] = cited from earlier work; for Observed AUC(0-inf) Fasted / Observed AUC(0-inf) Fed / Observed Cmax Fed / Observed Cmax Fasted / Observed AUC Ratios (Fed/Fasted) / Observed Cmax Ratios (Fed/Fasted): ref published clinical data (Table I)
[2] = pKa
[3] = Solubility measurement in biorelevant media (FaSSIF-V2, FeSSIF-V2); conditions: 37 °C, thermodynamic from solid
Description: The solubility of the drug substances was determined in biorelevant media as well as in aqueous buffers at different pH. Fasted state simulated gastric fluid (FaSSGF) ([37]), fasted state simulated intestinal fluid (FaSSIF-V2) ([38]), and fed state simulated intestinal fluid (FeSSIF-V2) ([39]) were prepared according to the instructions provided by Biorelevant (Biorelevant.com Ltd., London, UK). […] For neutral compounds, solubility was determined at pH 2, pH 4, and pH 7.
For freely soluble compounds, the extent of solubilization was measured only up to 10 mg/mL.

[4] = Effective human jejunum permeability (Peff,man) used in the PBPK model; type: in vitro ADME; conditions: human, 1 h
Description: Permeation rates of the compounds, including reference compounds, were measured in the apical-to-basolateral (AB) direction. The donor and receiver wells were sampled immediately after application of the compound to the donor well to determine baseline concentrations, and again after 1 h. Quantification was done using high-performance liquid chromatography combined with mass spectrometry (HPLC-MS/MS) analysis and monolayer integrity was verified by analyzing the receiver samples for LuY fluorescence in a plate reader.

[5] = PBPK food effect modeling (Simcyp V17.1 and/or GastroPlus V9.5; Model 1 / Model 2); parameters: species or system human
[6] = not generated within this working group; ref Table I; cited from earlier work
[7] = parameters: method as in Table I reference column; conditions: not generated within this working group; ref Table I; cited from earlier work
[8] = FaSSIF-V2 (fasted state simulated intestinal fluid), FaSSIF solubility
[9] = FeSSIF-V2 (fed state simulated intestinal fluid), FeSSIF solubility
[10] = clinically observed PK change (AUC, Cmax) fed vs fasted, compiled by literature search
[11] = direction, AUC and/or Cmax ratio fed to fasted, BE criteria 0.8–1.25, ref drug label

## CCc1cc2c(cc1N1CCC(N3CCOCC3)CC1)C(C)(C)c1[nH]c3cc(C#N)ccc3c1C2=O [Alectinib]
[1]; Model 1
  Observed AUC(0-inf) Fasted: 1790 ng·h/mL
  Observed AUC(0-inf) Fed: 5230 ng·h/mL
  Observed Cmax Fed: 257 ng/mL
[1]; Model 2
  Observed AUC(0-inf) Fasted: 1790 ng·h/mL
  Observed AUC(0-inf) Fed: 5230 ng·h/mL
  Observed Cmax Fed: 257 ng/mL
[2]; pKa (b, basic)
  pKa: 7.05
[3]; [8]
  solubility: 23 µg/mL (≈ 47.7 µM)
[3]; [9]
  solubility: 77 µg/mL (≈ 160 µM)

## CC[C@H]1OC(=O)[C@H](C)[C@@H](O[C@H]2C[C@@](C)(OC)[C@@H](O)[C@H](C)O2)[C@H](C)[C@@H](O[C@@H]2O[C@H](C)C[C@H](N(C)C)[C@H]2O)[C@](C)(OC)C[C@@H](C)C(=O)[C@H](C)[C@@H](O)[C@]1(C)O [Clarithromycin]
[1]; Model 1
  Observed AUC(0-inf) Fasted: 12600 ng·h/mL
  Observed Cmax Fasted: 1650 ng/mL
  Observed AUC(0-inf) Fed: 15700 ng·h/mL
  Observed Cmax Fed: 2510 ng/mL
[1]; Model 2
  Observed AUC(0-inf) Fasted: 12600 ng·h/mL
  Observed Cmax Fasted: 1650 ng/mL
  Observed AUC(0-inf) Fed: 15700 ng·h/mL
  Observed Cmax Fed: 2510 ng/mL
[1]; [10]
  Food Effect: Positive (positive if the ratio of fed > fasted)
[4]
  Effective permeability: 30 ×10⁻⁶ cm/s
[3]; [8]
  solubility: 132 µg/mL (≈ 176 µM)
[3]; [9]
  solubility: 1660 µg/mL (≈ 2210 µM)

## Cc1c(F)cccc1NC(=O)Nc1ccc(Cl)c(S(=O)(=O)[C@H]2CCCNC2)c1O [Danirixin]
[1]; Model 1
  Observed AUC(0-inf) Fasted: 10400 ng·h/mL
  Observed Cmax Fasted: 3020 ng/mL
  Observed AUC(0-inf) Fed: 6760 ng·h/mL
  Observed Cmax Fed: 1300 ng/mL
  Observed AUC Ratios (Fed/Fasted): 0.65
  Observed Cmax Ratios (Fed/Fasted): 0.43
[1]; [10]
  Food Effect: Negative (negative if ratio fasted > fed)
[1]; [11]
  Food Effect: Negative (negative if ratio fasted > fed)
[2]; pKa (a, acidic)
  pKa: 4.8
[2]; pKa (b, basic)
  pKa: 8.1
[5]; Model 1
  AUC Ratio of Ratios (Sim'd / Obs'd): 1.51
  Cmax Ratio of Ratios (Sim'd / Obs'd): 1.70
[3]; [8]
  solubility: 459 µg/mL (≈ 1040 µM)

## CNCCC(Oc1ccc(C(F)(F)F)cc1)c1ccccc1 (stereo not drawn) [Fluoxetine HCl]
[1]; Model 1
  Observed AUC(0-inf) Fasted: 1930 ng·h/mL
  Observed Cmax Fasted: 39.3 ng/mL
  Observed AUC(0-inf) Fed: 1340 ng·h/mL
  Observed Cmax Fed: 35.7 ng/mL
[1]; Model 2
  Observed AUC(0-inf) Fasted: 1930 ng·h/mL
  Observed Cmax Fasted: 39.3 ng/mL
  Observed AUC(0-inf) Fed: 1340 ng·h/mL
  Observed Cmax Fed: 35.7 ng/mL
[1]; ref drug label
  food effect (FE) direction: no FE
[2]; pKa (b, basic)
  pKa: 9.8

## Cc1ccc(NC(=O)c2ccc(CN3CCN(C)CC3)cc2)cc1Nc1nccc(-c2cccnc2)n1 [Imatinib]
[1]; [11]
  Food Effect: None (none if no significant change in AUC and Cmax with food)
[2]
  pKa (b, basic): 8.07
[2]; pKa (b, basic)
  pKa: 3.73
[4]
  Effective permeability: 110 ×10⁻⁶ cm/s

## CCC(C)n1ncn(-c2ccc(N3CCN(c4ccc(OCC5COC(Cn6cncn6)(c6ccc(Cl)cc6Cl)O5)cc4)CC3)cc2)c1=O (stereo not drawn) [Itraconazole]
[1]; Model 1
  Observed AUC(0-inf) Fasted: 1880 ng·h/mL
  Observed Cmax Fasted: 140 ng/mL
  Observed AUC(0-inf) Fed: 3120 ng·h/mL
  Observed Cmax Fed: 239 ng/mL
  Observed AUC Ratios (Fed/Fasted): 1.66
  Observed Cmax Ratios (Fed/Fasted): 1.71
[1]; Model 2
  Observed AUC(0-inf) Fasted: 1880 ng·h/mL
  Observed Cmax Fasted: 140 ng/mL
  Observed AUC(0-inf) Fed: 3120 ng·h/mL
  Observed Cmax Fed: 239 ng/mL
  Observed AUC Ratios (Fed/Fasted): 1.66
  Observed Cmax Ratios (Fed/Fasted): 1.71
[1]; [10]
  Food Effect: Positive (positive if the ratio of fed > fasted)
[1]; [11]
  Food Effect: Positive (positive if the ratio of fed > fasted)
[2]; pKa (b, basic)
  pKa: 4.28
[4]
  Effective permeability: 990 ×10⁻⁶ cm/s
[5]; Model 1
  AUC Ratio of Ratios (Sim'd / Obs'd): 0.82
  Cmax Ratio of Ratios (Sim'd / Obs'd): 1.03
[5]; Model 2
  AUC Ratio of Ratios (Sim'd / Obs'd): 1.00
  Cmax Ratio of Ratios (Sim'd / Obs'd): 1.02
[3]; [8]
  solubility: 1120 µg/mL (≈ 1590 µM)
[3]; [9]
  solubility: 3620 µg/mL (≈ 5130 µM)

## CCOC(=O)C1=C[C@@H](OC(CC)CC)[C@H](NC(C)=O)[C@@H](N)C1 [Oseltamivir]
[1]; Model 1
  Observed AUC(0-inf) Fasted: 6220 ng·h/mL
  Observed Cmax Fasted: 551 ng/mL
  Observed AUC(0-inf) Fed: 6070 ng·h/mL
  Observed Cmax Fed: 441 ng/mL
  Observed AUC Ratios (Fed/Fasted): 0.98
  Observed Cmax Ratios (Fed/Fasted): 0.80
[1]; [11]
  Food Effect: None (none if no significant change in AUC and Cmax with food)
[2]; pKa (b, basic)
  pKa: 7.7
[6]
  Solubility at pH 6.5: 25,000^^ μg/ml
[5]; Model 1
  AUC Ratio of Ratios (Sim'd / Obs'd): 1.09
  Cmax Ratio of Ratios (Sim'd / Obs'd): 1.34

## O=C1NC(=O)C(c2ccccc2)(c2ccccc2)N1 [Phenytoin]
[7]
  FaSSIF solubility: 39.6^^ μg/ml
  FeSSIF solubility: 49.5^^ μg/ml
[1]; Model 1
  Observed AUC(0-inf) Fasted: 104000 ng·h/mL
  Observed Cmax Fasted: 4920 ng/mL
  Observed AUC(0-inf) Fed: 127000 ng·h/mL
  Observed Cmax Fed: 6950 ng/mL
  Observed AUC Ratios (Fed/Fasted): 1.22
  Observed Cmax Ratios (Fed/Fasted): 1.41
[1]; Model 2
  Observed AUC(0-inf) Fasted: 104000 ng·h/mL
  Observed Cmax Fasted: 4920 ng/mL
  Observed AUC(0-inf) Fed: 127000 ng·h/mL
  Observed Cmax Fed: 6950 ng/mL
  Observed AUC Ratios (Fed/Fasted): 1.22
  Observed Cmax Ratios (Fed/Fasted): 1.41
[1]; [10]
  Food Effect: Positive (positive if the ratio of fed > fasted)
[1]; [11]
  Food Effect: Positive (positive if the ratio of fed > fasted)
[1]; ref drug label
  food effect (FE) direction: positive FE
[2]; pKa (a, acidic)
  pKa: 8.06
[4]
  Effective permeability: 400 ×10⁻⁶ cm/s
[6]
  Solubility at pH 6.5: 31^^ μg/ml
[5]; Model 1
  AUC Ratio of Ratios (Sim'd / Obs'd): 0.95
  Cmax Ratio of Ratios (Sim'd / Obs'd): 0.92
[5]; Model 2
  AUC Ratio of Ratios (Sim'd / Obs'd): 0.99
  Cmax Ratio of Ratios (Sim'd / Obs'd): 1.00

## CC(C)(C)c1nc(-c2cccc(NS(=O)(=O)c3c(F)cccc3F)c2F)c(-c2ccnc(N)n2)s1 [Tafinlar]
[1]; [10]
  Food Effect: Negative (negative if ratio fasted > fed)

## CCOc1ccccc1OCCN[C@H](C)Cc1ccc(OC)c(S(N)(=O)=O)c1 [Tamsulosin hydrochloride]
[1]; [10]
  Food Effect: Negative (negative if ratio fasted > fed)

## CCC[C@H](NC(=O)[C@@H]1[C@H]2CCC[C@H]2CN1C(=O)[C@@H](NC(=O)[C@@H](NC(=O)c1cnccn1)C1CCCCC1)C(C)(C)C)C(=O)C(=O)NC1CC1 [Telapravir]
[1]; [10]
  Food Effect: Positive (positive if the ratio of fed > fasted)

## Cc1ccc(O)c([C@H](CCN(C(C)C)C(C)C)c2ccccc2)c1 [Tolterodine tartrate]
[1]; [10]
  Food Effect: None (none if no significant change in AUC and Cmax with food)

## CC1(C)O[C@@H]2[C@@H](CO[C@@]3(COS(N)(=O)=O)OC(C)(C)O[C@@H]23)O1 [Topiramate]
[1]; [10]
  Food Effect: None (none if no significant change in AUC and Cmax with food)

## CSc1nc2cc(Cl)c(Oc3cccc(Cl)c3Cl)cc2[nH]1 [Triclabendazole]
[1]; [10]
  Food Effect: Positive (positive if the ratio of fed > fasted)

## Cc1c(C)c2c(c(C)c1O)CCC(C)(COc1ccc(CC3SC(=O)NC3=O)cc1)O2 (stereo not drawn) [Troglitazone]
[1]; [10]
  Food Effect: Positive (positive if the ratio of fed > fasted)

## O=C(O[C@H]1C[C@H]2CC[C@@H](C1)[N+]21CCCC1)C(O)(c1ccccc1)c1ccccc1 [Trospium Chloride]
[1]; [10]
  Food Effect: Negative (negative if ratio fasted > fed)

## Cc1onc(-c2ccccc2)c1-c1ccc(S(N)(=O)=O)cc1 [Valdecoxib]
[1]; [10]
  Food Effect: None (none if no significant change in AUC and Cmax with food)

## CCCS(=O)(=O)Nc1ccc(F)c(C(=O)c2c[nH]c3ncc(-c4ccc(Cl)cc4)cc23)c1F [Vemurafenib]
[1]; [10]
  Food Effect: Positive (positive if the ratio of fed > fasted)

## Nc1ccn([C@H]2CC[C@@H](CO)O2)c(=O)n1 [Zalcitabine]
[1]; [10]
  Food Effect: None (none if no significant change in AUC and Cmax with food)

## Cc1cn([C@H]2C[C@H](N=[N+]=[N-])[C@@H](CO)O2)c(=O)[nH]c1=O [Zidovudine]
[1]; Model 1
  Observed AUC(0-inf) Fasted: 2480 ng·h/mL
  Observed Cmax Fasted: 1130 ng/mL
  Observed AUC(0-inf) Fed: 2170 ng·h/mL
  Observed Cmax Fed: 632 ng/mL
[1]; [10]
  Food Effect: Negative (negative if ratio fasted > fed)
[1]; ref drug label
  food effect (FE) direction: negative FE
[2]; pKa (b, basic)
  pKa: 9.7

## O=C1Cc2cc(CCN3CCN(c4nsc5ccccc45)CC3)c(Cl)cc2N1 [Ziprasidone hydrochloride]
[1]; [10]
  Food Effect: Positive (positive if the ratio of fed > fasted)

## CN(C)CCc1c[nH]c2ccc(C[C@H]3COC(=O)N3)cc12 [Zolmitriptan]
[1]; [10]
  Food Effect: None (none if no significant change in AUC and Cmax with food)

## CC(C)NC[C@@H](O)c1ccc(NS(C)(=O)=O)cc1 [d-Sotalol]
[1]; Model 1
  Observed AUC(0-inf) Fasted: 15500 ng·h/mL
  Observed Cmax Fasted: 1200 ng/mL
  Observed AUC(0-inf) Fed: 12600 ng·h/mL
[1]; [10]
  Food Effect: None (none if no significant change in AUC and Cmax with food)
[2]
  pKa (b, basic): 9.72
[2]; pKa (a, acidic)
  pKa: 8.28
[6]
  Solubility at pH 6.5: 15,800^^ μg/ml
